pIC50: −log10 of the molar value.
Legend:
OATP1B1 = biological target: T1, OATP1B1 (Homo sapiens, UniProt Q9Y6L6); test: OATP1B1 inhibition, β-estradiol 17-(β-D-glucuronide) uptake in transfected HEK293 cells
T1 sequence (Q9Y6L6 1-691): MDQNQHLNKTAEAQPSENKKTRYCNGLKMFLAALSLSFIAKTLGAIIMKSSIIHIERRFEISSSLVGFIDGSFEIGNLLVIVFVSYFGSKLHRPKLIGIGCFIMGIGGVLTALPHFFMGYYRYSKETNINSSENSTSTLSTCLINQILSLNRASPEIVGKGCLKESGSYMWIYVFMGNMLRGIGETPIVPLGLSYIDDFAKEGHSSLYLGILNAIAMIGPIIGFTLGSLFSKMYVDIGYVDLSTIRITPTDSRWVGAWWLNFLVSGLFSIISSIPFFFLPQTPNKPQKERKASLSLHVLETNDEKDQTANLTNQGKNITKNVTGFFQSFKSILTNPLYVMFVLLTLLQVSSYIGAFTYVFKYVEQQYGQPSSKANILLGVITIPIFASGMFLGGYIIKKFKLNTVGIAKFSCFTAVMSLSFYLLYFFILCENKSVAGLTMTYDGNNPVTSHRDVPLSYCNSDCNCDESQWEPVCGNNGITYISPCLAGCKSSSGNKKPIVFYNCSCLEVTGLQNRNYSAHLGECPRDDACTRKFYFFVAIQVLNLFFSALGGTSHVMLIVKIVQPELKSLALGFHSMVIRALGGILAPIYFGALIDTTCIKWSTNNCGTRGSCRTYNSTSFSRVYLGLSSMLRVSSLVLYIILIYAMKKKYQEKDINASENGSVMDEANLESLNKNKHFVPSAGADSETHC
Description: (§1) The pre-incubation solutions were removed, and incubation solutions containing the inhibitors and probe substrates (or transport buffer containing an equal volume of vehicle control and probe substrates) were added and incubated at 37°C for 2 min (5 min for OATP1B3). The probe substrate for OAT1 was 4-aminohippuric acid (10 μM), for OAT3 was estrone 3-sulfate (10 μM), for OCT2 was metformin (100 μM), for OATP1B1 was β-estradiol 17-(β-D-glucuronide) (5 μM), for OATP1B3 was β-estradiol 17-(β-D-glucuronide) (10 μM), and for MATE1 and MATE2-K was tetraethylammonium (10 μM). After incubation, cells were washed three times with ice-cold transport buffer (25 mM HEPES, pH 7.4, pH 8.0 for overexpressing MATE1 and MATE2-K HEK293 cells) and lysed in distilled water. The concentrations of probe substrates were determined by LC-MS/MS, and a BCA Kit (Solarbio ®Life Sciences, Beijing, China) was used to determine the protein content in the cell lysate.
(§2) where C is the concentration of the drug in the cell lysate (nM), P is the protein concentration of the cell lysate (mg/mL), and T is the incubation time (minute). Uptake ratetest compound is the uptake rate of the substrate in the presence of the test compound. Uptake ratevehicle control is the uptake rate of the substrate in the presence of the vehicle control. Uptake ratepassive is the uptake rate of the substrate in the presence of the positive inhibitor at the top test concentration.

OAT1 = biological target: T2, OAT1 (Homo sapiens, UniProt Q4U2R8); test: in vitro
T2 sequence (Q4U2R8 1-563): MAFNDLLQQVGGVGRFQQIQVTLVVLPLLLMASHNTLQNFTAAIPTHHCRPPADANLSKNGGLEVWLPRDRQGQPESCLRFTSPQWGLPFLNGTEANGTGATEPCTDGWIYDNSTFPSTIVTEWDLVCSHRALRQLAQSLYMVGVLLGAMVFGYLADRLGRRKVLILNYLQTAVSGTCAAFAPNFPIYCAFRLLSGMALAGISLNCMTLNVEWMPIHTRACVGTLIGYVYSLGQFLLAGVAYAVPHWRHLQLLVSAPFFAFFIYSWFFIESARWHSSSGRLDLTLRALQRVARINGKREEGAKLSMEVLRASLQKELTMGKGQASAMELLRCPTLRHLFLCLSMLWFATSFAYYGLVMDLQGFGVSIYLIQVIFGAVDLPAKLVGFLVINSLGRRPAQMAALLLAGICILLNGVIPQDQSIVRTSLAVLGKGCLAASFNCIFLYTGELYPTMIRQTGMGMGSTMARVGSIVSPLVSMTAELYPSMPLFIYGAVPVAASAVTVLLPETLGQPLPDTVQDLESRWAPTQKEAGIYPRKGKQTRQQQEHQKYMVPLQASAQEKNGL
Description: as §1, §2

Compound C[C@H](Nc1ncnc(N)c1C#N)c1cc2ncc(Cl)n2nc1-c1ccccc1 [Amdizalisib] has a pIC50 (OATP1B1) of 5.14, a Percentage transported (OATP1B1; human, 2 min, 0.3 μM, pH 7.4) of 113% and an Uptake rate (OATP1B1; human, 2 min, 0.3 μM, pH 7.4) of 59.0±1.42 pmol/mg protein/min. It also gave a Percentage transported (OATP1B1; human, 2 min, 1 μM, pH 7.4) of 105%, an Uptake rate (OATP1B1; human, 2 min, 1 μM, pH 7.4) of 55.1±2.95 pmol/mg protein/min and a Percentage transported (OATP1B1; human, 2 min, 3 μM, pH 7.4) of 86.5%. It also gave an Uptake rate (OATP1B1; human, 2 min, 3 μM, pH 7.4) of 47.2±3.13 pmol/mg protein/min, a Percentage transported (OATP1B1; human, 2 min, 10 μM, pH 7.4) of 32.7% and an Uptake rate (OATP1B1; human, 2 min, 10 μM, pH 7.4) of 19.3±4.10 pmol/mg protein/min. It also gave a Percentage transported (OATP1B1; human, 2 min, 30 μM, pH 7.4) of 8.04%, a Percentage transported (OATP1B1; human, 2 min, 100 μM, pH 7.4) of -3.17% and an Uptake rate (OATP1B1; human, 2 min, 100 μM, pH 7.4) of 1.46±0.141 pmol/mg protein/min. The “calculated R value (OATP1B1)” value (OATP1B1; human, 2 min, pH 7.4) was 3.8, the inhibition at 2 min, 0.3 µM (OATP1B1; human, pH 7.4) was -12.5% and the inhibition at 2 min, 1 µM (OATP1B1; human, pH 7.4) was -4.64%. It also gave an inhibition at 2 min, 3 µM (OATP1B1; human, pH 7.4) of 13.5%, an inhibition at 2 min, 10 µM (OATP1B1; human, pH 7.4) of 67.3% and an inhibition at 2 min, 30 µM (OATP1B1; human, pH 7.4) of 92%. For the same compound, the inhibition at 2 min, 100 µM (OATP1B1; human, pH 7.4) was 103%, the pIC50 (OAT1) was 5.38 and the Percentage transported (OAT1; OAT1, compound 0.3 μM) was 96.4%. The Uptake rate (OAT1; OAT1, compound 0.3 μM) was 489±79.6 pmol/mg protein/min, the Percentage transported (OAT1; OAT1, compound 1 μM) was 91.6% and the Uptake rate (OAT1; OAT1, compound 1 μM) was 467±34.8 pmol/mg protein/min. The Percentage transported (OAT1; OAT1, compound 3 μM) was 50.9%, the Uptake rate (OAT1; OAT1, compound 3 μM) was 278±37.1 pmol/mg protein/min and the Percentage transported (OAT1; OAT1, compound 10 μM) was 33.3%. The Uptake rate (OAT1; OAT1, compound 10 μM) was 196±6.18 pmol/mg protein/min, the Percentage transported (OAT1; OAT1, compound 30 μM) was 7.47% and the Uptake rate (OAT1; OAT1, compound 30 μM) was 76.5±17.7 pmol/mg protein/min. The Percentage transported (OAT1; OAT1, compound 100 μM) was -7.21%, the Uptake rate (OAT1; OAT1, compound 100 μM) was 8.38±1.24 pmol/mg protein/min and the inhibition at 2 min, 0.3 µM (OAT1; human, pH 7.4) was 3.65%. For the same compound, the inhibition at 2 min, 1 µM (OAT1; human, pH 7.4) was 8.44%, the inhibition at 2 min, 3 µM (OAT1; human, pH 7.4) was 49.1% and the inhibition at 2 min, 10 µM (OAT1; human, pH 7.4) was 66.7%. The inhibition at 2 min, 30 µM (OAT1; human, pH 7.4) was 92.5%, the inhibition at 2 min, 100 µM (OAT1; human, pH 7.4) was 107% and the “calculated R value (OAT1)” value (OAT1; renal OATs) was < 1.1.

— paper PMC11211886 (Frontiers in Pharmacology, 2024)
